In PubChem BioAssay AID1259407 (Chemical Carcinogenesis Research Information System (CCRIS), 2018):
Activity calls are given as the source filed them. No rule for the calls is given here.

System: CCRIS mutagenicity, Ames/micronucleus/aberration tests
Experiment: CCRIS mutagenicity studies

SMILES: Nc1ccc2ccccc2c1
- mutagenic call (Test System: AMES SALMONELLA TYPHIMURIUM, Strain/Indicator: TA98(1,8-DNP6), Metabolic Activation: PLANT CELLS, Method: PREINCUBATION): inactive; negative
- mutagenic call (Test System: AMES SALMONELLA TYPHIMURIUM, Strain/Indicator: TA98, Metabolic Activation: HAMSTER, LIVER, S-9, AROCLOR 1254 (30%), Method: PREINCUBATION): active; positive
- mutagenic call (Test System: AMES SALMONELLA TYPHIMURIUM, Strain/Indicator: TA98, Metabolic Activation: HUMAN, RED BLOOD CELL, CYTOSOL, Method: PREINCUBATION): active; positive
- mutagenic call (Test System: AMES SALMONELLA TYPHIMURIUM, Strain/Indicator: TA98, Metabolic Activation: MOUSE, LIVER, S-9, PHENOBARBITAL AND BETA-NAPHTHOFLAVONE, Method: STANDARD PLATE): active; positive
- mutagenic call (Test System: AMES SALMONELLA TYPHIMURIUM, Strain/Indicator: TA98, Metabolic Activation: MOUSE, LIVER, S-9, PHENOBARBITAL, BETA-NAPHTHOFLAVONE, ISOSAFROLE, ETHANOL, PREGNENOLONE AND 16ALPHA-CARBONITRILE, Method: STANDARD PLATE): active; positive
- mutagenic call (Test System: AMES SALMONELLA TYPHIMURIUM, Strain/Indicator: TA98, Metabolic Activation: NONE, Method: PREINCUBATION): inactive; negative
- mutagenic call (Test System: AMES SALMONELLA TYPHIMURIUM, Strain/Indicator: TA98, Metabolic Activation: NONE, Method: STANDARD PLATE): inactive; negative
- mutagenic call (Test System: AMES SALMONELLA TYPHIMURIUM, Strain/Indicator: TA98, Metabolic Activation: PLANT CELLS, Method: PREINCUBATION): inactive; negative
- mutagenic call (Test System: AMES SALMONELLA TYPHIMURIUM, Strain/Indicator: TA98, Metabolic Activation: RAT, LIVER, S-9, AROCLOR 1254 (2%), Method: STANDARD PLATE): active; positive
- mutagenic call (Test System: AMES SALMONELLA TYPHIMURIUM, Strain/Indicator: TA98, Metabolic Activation: RAT, LIVER, S-9, AROCLOR 1254 (30%), Method: PREINCUBATION): active; positive
- mutagenic call (Test System: AMES SALMONELLA TYPHIMURIUM, Strain/Indicator: TA98, Metabolic Activation: RAT, LIVER, S-9, AROCLOR 1254, Method: STANDARD PLATE): inactive; negative
- mutagenic call (Test System: AMES SALMONELLA TYPHIMURIUM, Strain/Indicator: TA98, Metabolic Activation: RAT, LIVER, S-9, KANECHLOR 500 OR PHENOBARBITAL AND BETA-NAPHTHOFLAVONE, Method: PREINCUBATION): active; positive
- mutagenic call (Test System: AMES SALMONELLA TYPHIMURIUM, Strain/Indicator: TA100, Metabolic Activation: HAMSTER, LIVER, S-9, AROCLOR 1254 (30%), Method: PREINCUBATION): active; positive
- mutagenic call (Test System: AMES SALMONELLA TYPHIMURIUM, Strain/Indicator: TA100, Metabolic Activation: NONE, Method: PREINCUBATION): inactive; negative
- mutagenic call (Test System: AMES SALMONELLA TYPHIMURIUM, Strain/Indicator: TA100, Metabolic Activation: NONE, Method: STANDARD PLATE): inactive; negative
- mutagenic call (Test System: AMES SALMONELLA TYPHIMURIUM, Strain/Indicator: TA100, Metabolic Activation: RAT, LIVER, S-9, AROCLOR 1254 (10%) (WITHOUT ADDED COFACTORS), Method: STANDARD PLATE): inactive; negative
- mutagenic call (Test System: AMES SALMONELLA TYPHIMURIUM, Strain/Indicator: TA100, Metabolic Activation: RAT, LIVER, S-9, AROCLOR 1254 (30%), Method: PREINCUBATION): active; positive
- mutagenic call (Test System: AMES SALMONELLA TYPHIMURIUM, Strain/Indicator: TA100, Metabolic Activation: RAT, LIVER, S-9, AROCLOR 1254, Method: STANDARD PLATE): active; positive
- mutagenic call (Test System: AMES SALMONELLA TYPHIMURIUM, Strain/Indicator: TA100, Metabolic Activation: RAT, LIVER, S-9, AROCLOR (10%), Method: STANDARD PLATE): active; positive
- mutagenic call (Test System: AMES SALMONELLA TYPHIMURIUM, Strain/Indicator: TA100, Metabolic Activation: RAT, LIVER, S-9, KANECHLOR 500 OR PHENOBARBITAL AND BETA-NAPHTHOFLAVONE, Method: PREINCUBATION): active; positive
- mutagenic call (Test System: AMES SALMONELLA TYPHIMURIUM, Strain/Indicator: TA100, Metabolic Activation: RAT, LIVER, S-9, KC500 OR PHENOBARBITAL, Method: LIQUID SUSPENSION): active; positive
- mutagenic call (Test System: AMES SALMONELLA TYPHIMURIUM, Strain/Indicator: TA100, Metabolic Activation: RAT, LIVER, S-9, TCDD, Method: STANDARD PLATE): active; positive
- mutagenic call (Test System: AMES SALMONELLA TYPHIMURIUM, Strain/Indicator: TA100, Metabolic Activation: S-9, Method: FLUCTUATION TEST): active; positive
- mutagenic call (Test System: AMES SALMONELLA TYPHIMURIUM, Strain/Indicator: TA1535, Metabolic Activation: RAT, LIVER, S-9, AROCLOR 1254, Method: STANDARD PLATE): active; positive
- mutagenic call (Test System: AMES SALMONELLA TYPHIMURIUM, Strain/Indicator: TA1535, Metabolic Activation: RAT, LIVER, S-9, AROCLOR (10%), Method: STANDARD PLATE): active; positive
- mutagenic call (Test System: AMES SALMONELLA TYPHIMURIUM, Strain/Indicator: TA1535, Metabolic Activation: RAT, LIVER, S-9, PHENOBARBITAL, Method: STANDARD PLATE): active; positive
- mutagenic call (Test System: AMES SALMONELLA TYPHIMURIUM, Strain/Indicator: YG1024, Metabolic Activation: PLANT CELLS, Method: PREINCUBATION): inactive; negative
- mutagenic call (Test System: CHINESE HAMSTER V-79, Strain/Indicator: V-79/6-THIOGUANINE, Metabolic Activation: NONE, Method: SUSPENSION/PLATE): inactive; negative
- mutagenic call (Test System: CHINESE HAMSTER V-79, Strain/Indicator: V-79/6-THIOGUANINE, Metabolic Activation: RAT, LIVER, S-9, PHENOBARBITAL AND BETA-NAPHTHOFLAVONE, Method: SUSPENSION/PLATE): active; positive
- mutagenic call (Test System: E. COLI, Strain/Indicator: WP2 UVRA, Metabolic Activation: HAMSTER, LIVER, S-9, AROCLOR 1254, Method: STANDARD PLATE): inactive; negative
- mutagenic call (Test System: E. COLI, Strain/Indicator: WP2 UVRA, Metabolic Activation: HAMSTER, LIVER, S-9, Method: STANDARD PLATE): inactive; negative
- mutagenic call (Test System: E. COLI, Strain/Indicator: WP2 UVRA, Metabolic Activation: MOUSE, LIVER, S-9, AROCLOR 1254, Method: STANDARD PLATE): inactive; negative
- mutagenic call (Test System: E. COLI, Strain/Indicator: WP2 UVRA, Metabolic Activation: MOUSE, LIVER, S-9, Method: STANDARD PLATE): inactive; negative
- mutagenic call (Test System: E. COLI, Strain/Indicator: WP2 UVRA, Metabolic Activation: NONE, Method: STANDARD PLATE): inactive; negative
- mutagenic call (Test System: E. COLI, Strain/Indicator: WP2 UVRA, Metabolic Activation: RAT, LIVER, S-9, AROCLOR 1254, Method: STANDARD PLATE): inactive; negative
- mutagenic call (Test System: E. COLI, Strain/Indicator: WP2 UVRA, Metabolic Activation: RAT, LIVER, S-9, Method: STANDARD PLATE): inactive; negative

SMILES: CCCNCC(=O)NC(=O)C=[N+]=[N-]
- mutagenic call (Test System: UDS RODENT CELLS, Strain/Indicator: THY INCORP (NON-S-PHASE), Metabolic Activation: NONE, Method: AUTORADIOGRAPHY): active; positive

SMILES: C1=Cc2c3ccc4cccc5ccc(c6cccc1c26)c3c45
- mutagenic call (Test System: AMES SALMONELLA TYPHIMURIUM, Strain/Indicator: TA98, Metabolic Activation: RAT, LIVER, S-9, AROCLOR 1254 (0.55 MG), Method: STANDARD PLATE): active; positive
- mutagenic call (Test System: AMES SALMONELLA TYPHIMURIUM, Strain/Indicator: TA100, Metabolic Activation: RAT, LIVER, S-9, AROCLOR 1254 (0.55 MG), Method: STANDARD PLATE): active; positive
- mutagenic call (Test System: AMES SALMONELLA TYPHIMURIUM, Strain/Indicator: TA104, Metabolic Activation: RAT, LIVER, S-9, AROCLOR 1254 (0.55 MG), Method: STANDARD PLATE): active; positive
- mutagenic call (Test System: AMES SALMONELLA TYPHIMURIUM, Strain/Indicator: TA1535, Metabolic Activation: RAT, LIVER, S-9, AROCLOR 1254 (0.55 MG), Method: STANDARD PLATE): inactive; negative
- mutagenic call (Test System: AMES SALMONELLA TYPHIMURIUM, Strain/Indicator: TA1537, Metabolic Activation: RAT, LIVER, S-9, AROCLOR 1254 (0.55 MG), Method: STANDARD PLATE): active; positive
- mutagenic call (Test System: AMES SALMONELLA TYPHIMURIUM, Strain/Indicator: TA1538, Metabolic Activation: RAT, LIVER, S-9, AROCLOR 1254 (0.55 MG), Method: STANDARD PLATE): active; positive
